Results reported in publication PMC7143578, “Terpenoids from the Deep-Sea-Derived Fungus Penicillium thomii YPGA3 and Their Bioactivities” (Marine Drugs, 2020).

test system: α-glucosidase from Saccharomyces cerevisiae; assay: α-glucosidase inhibition assay (PNPG substrate); type: biochemical; conditions: initial concentration of 1 mM
Experimental: The α-glucosidase inhibitory effect was assessed as follows. First, 0.2 U of α-glucosidase from Saccharomyces cerevisiae was purchased from Sigma-Aldrich (St. Louis, MO, USA), and was diluted in a 0.067 M phosphate buffer consisting of Na2HPO4·12H2O and KH2PO4 (pH 6.8). The assay was conducted in a 60 μL reaction system containing 20 μL of diluted enzyme solution, and 20μL of dimethyl sulfoxide (DMSO) or sample (dissolved in DMSO). […] The plate was incubated for an additional 20 min at 37 °C, and the reaction was quenched by adding 60 μL of 0.2 M Na2CO3. The final concentrations of tested compounds were between 0.2 and 2 mM. The optical density (OD) was measured at an absorbance wavelength of 405 nm using a Microplate Reader (Tecan, Mannedorf, Switzerland).

inhibition of α-glucosidase	Structure (SMILES)
more than 50%	COC(=O)CC[C@]1(C)[C@H]2Cc3c(c(C)c4c(c3OC)C(=O)OC4)O[C@@]2(C)CC[C@H]1C(C)(C)O [Compound 2, austalide P]
low inhibition	C=C1CCC2C(C)(CCC(O)C2(C)C(=O)O)C1CCC(C)=CC(=O)O (stereo not drawn) [Compound 9, 3β-hydroxy-agathic acid]
more than 50%	C=C1CC[C@@H]2[C@](C)(CCC[C@]2(C)C(=O)O)[C@H]1CC/C(C)=C/C(=O)O [Compound 11, agathic acid]

Structure (SMILES)	inhibition of α-glucosidase
C=C1CCC2C(C)(CCC(OC(C)=O)C2(C)C(=O)O)C1CCC(C)=CC(=O)O (stereo not drawn) [Compound 10, 3β-acetoxy-agathic acid]	low inhibition

same assay, conditions: three replicates; read-out: IC50 against α-glucosidase

IC50 [µM]	Structure (SMILES)
910 ± 4	COC(=O)CC[C@]1(C)[C@H]2Cc3c(c(C)c4c(c3OC)C(=O)OC4)O[C@@]2(C)CC[C@H]1C(C)(C)O [Compound 2, austalide P]
525 ± 2	C=C1CC[C@@H]2[C@](C)(CCC[C@]2(C)C(=O)O)[C@H]1CC/C(C)=C/C(=O)O [Compound 11, agathic acid]

test system: NO production in LPS-activated RAW 264.7 macrophages; assay: Inhibition of NO production in LPS-activated RAW 264.7 macrophages; type: cell-based; conditions: Mus musculus, RAW264.7, 50 μM, read-out: Inhibitions (%) on NO production
Experimental: (§1) The isolated compounds were also evaluated for their inhibitory effects against NO production in LPS-activated RAW 264.7 macrophages at the concentration of 50 μM following the same procedures in our previous study. The cell viability was further determined by the MTT assay to evaluate whether the inhibition on NO production was owing to the cytotoxicity.

Structure (SMILES)	inhibition at 50 µM [%]
COC(=O)CC[C@]1(C)[C@H]2Cc3c(c(C)c4c(c3OC)C(=O)OC4)O[C@@]2(C)CC[C@H]1C(C)(C)O [Compound 2, austalide P]	> 50
COC(=O)CC[C@]1(C)[C@H]2Cc3c(c(C)c4c(c3OC)C(=O)OC4)O[C@@]2(C)C[C@@H](O)[C@H]1C(C)(C)O [Compound 3, austalide H]	-9.91
COc1c2c(c(C)c3c1C(=O)OC3)O[C@@]1(C)CC[C@@H](C(C)(C)O)[C@](C)(CCC(=O)O)[C@H]1C2 [Compound 4, austalide P acid]	5.29
COc1c2c(c(C)c3c1C(=O)OC3)O[C@@]1(C)C[C@@H](O)[C@@H](C(C)(C)O)[C@](C)(CCC(=O)O)[C@H]1C2 [Compound 5, austalide H acid]	12.1
COc1c2c(c(C)c3c1C(=O)OC3)OC1(C)CC(O)C34OC(O)(CCC3(C)C1C2)OC4(C)C (stereo not shown) [Compound 6, 17-O-demethylaustalide B]	-3.74
C=C(C)[C@@H]1[C@H](O)C[C@]2(C)Oc3c(C)c4c(c(OC)c3C[C@@H]2[C@@]1(C)CCC(=O)O)C(=O)OC4 [Compound 7, austalide Q acid]	-3.08
C=C(C)[C@@H]1CC[C@]2(C)Oc3c(C)c4c(c(OC)c3C[C@@H]2[C@@]1(C)CCC(=O)O)C(=O)OC4 [Compound 8, 13-deoxyaustalide Q acid]	24
C=C1CCC2C(C)(CCC(O)C2(C)C(=O)O)C1CCC(C)=CC(=O)O (stereo not drawn) [Compound 9, 3β-hydroxy-agathic acid]	7.81
C=C1CC[C@@H]2[C@](C)(CCC[C@]2(C)C(=O)O)[C@H]1CC/C(C)=C/C(=O)O [Compound 11, agathic acid]	4.85

test system: not listed separately; assay: MTT cell viability of RAW 264.7 macrophages; type: cell-based; conditions: mouse, LPS-activated RAW 264.7 macrophages, MTT assay, read-out: cytotoxicity (%) toward RAW 264.7 (cell viability)
Experimental: as §1

Structure (SMILES)	viability at 50 µM [%]
COC(=O)CCC1(C)C(C(C)(C)O)CCC2(C)Oc3c(C)c4c(c(O)c3CC21)C(=O)OC4 (stereo not shown) [Compound 1, austalide Y]	33.1
COC(=O)CC[C@]1(C)[C@H]2Cc3c(c(C)c4c(c3OC)C(=O)OC4)O[C@@]2(C)CC[C@H]1C(C)(C)O [Compound 2, austalide P]	46.2
COC(=O)CC[C@]1(C)[C@H]2Cc3c(c(C)c4c(c3OC)C(=O)OC4)O[C@@]2(C)C[C@@H](O)[C@H]1C(C)(C)O [Compound 3, austalide H]	60.9
COc1c2c(c(C)c3c1C(=O)OC3)O[C@@]1(C)CC[C@@H](C(C)(C)O)[C@](C)(CCC(=O)O)[C@H]1C2 [Compound 4, austalide P acid]	97.4
COc1c2c(c(C)c3c1C(=O)OC3)O[C@@]1(C)C[C@@H](O)[C@@H](C(C)(C)O)[C@](C)(CCC(=O)O)[C@H]1C2 [Compound 5, austalide H acid]	104
COc1c2c(c(C)c3c1C(=O)OC3)OC1(C)CC(O)C34OC(O)(CCC3(C)C1C2)OC4(C)C (stereo not shown) [Compound 6, 17-O-demethylaustalide B]	74.6
C=C(C)[C@@H]1[C@H](O)C[C@]2(C)Oc3c(C)c4c(c(OC)c3C[C@@H]2[C@@]1(C)CCC(=O)O)C(=O)OC4 [Compound 7, austalide Q acid]	80.8
C=C(C)[C@@H]1CC[C@]2(C)Oc3c(C)c4c(c(OC)c3C[C@@H]2[C@@]1(C)CCC(=O)O)C(=O)OC4 [Compound 8, 13-deoxyaustalide Q acid]	53.5
C=C1CCC2C(C)(CCC(O)C2(C)C(=O)O)C1CCC(C)=CC(=O)O (stereo not drawn) [Compound 9, 3β-hydroxy-agathic acid]	83.3
C=C1CCC2C(C)(CCC(OC(C)=O)C2(C)C(=O)O)C1CCC(C)=CC(=O)O (stereo not drawn) [Compound 10, 3β-acetoxy-agathic acid]	58.4
C=C1CC[C@@H]2[C@](C)(CCC[C@]2(C)C(=O)O)[C@H]1CC/C(C)=C/C(=O)O [Compound 11, agathic acid]	89.9

test system: RAW 264.7 cells; assay: MTT cell viability of RAW 264.7 macrophages; type: cell-based; conditions: MTT assay, 50 μM
Experimental: as §1

Structure (SMILES)	cytotoxicity (%) toward RAW 264.7 (cell viability)
COC(=O)CCC1(C)C(C(C)(C)O)CCC2(C)Oc3c(C)c4c(c(O)c3CC21)C(=O)OC4 (stereo not shown) [Compound 1, austalide Y]	obvious cytotoxic effects
COC(=O)CC[C@]1(C)[C@H]2Cc3c(c(C)c4c(c3OC)C(=O)OC4)O[C@@]2(C)CC[C@H]1C(C)(C)O [Compound 2, austalide P]	obvious cytotoxic effects
C=C1CCC2C(C)(CCC(OC(C)=O)C2(C)C(=O)O)C1CCC(C)=CC(=O)O (stereo not drawn) [Compound 10, 3β-acetoxy-agathic acid]	obvious cytotoxic effects

test system: not listed separately; assay: Cytotoxicity toward MCF-7 breast carcinoma cells; type: cell-based; parameters: concentration or dose not given beside the values; conditions: human, read-out: cytotoxicity (%) toward MCF-7 (cell viability)

Structure (SMILES)	viability [%]
COC(=O)CCC1(C)C(C(C)(C)O)CCC2(C)Oc3c(C)c4c(c(O)c3CC21)C(=O)OC4 (stereo not shown) [Compound 1, austalide Y]	104
COC(=O)CC[C@]1(C)[C@H]2Cc3c(c(C)c4c(c3OC)C(=O)OC4)O[C@@]2(C)CC[C@H]1C(C)(C)O [Compound 2, austalide P]	117
COC(=O)CC[C@]1(C)[C@H]2Cc3c(c(C)c4c(c3OC)C(=O)OC4)O[C@@]2(C)C[C@@H](O)[C@H]1C(C)(C)O [Compound 3, austalide H]	84.7
COc1c2c(c(C)c3c1C(=O)OC3)O[C@@]1(C)CC[C@@H](C(C)(C)O)[C@](C)(CCC(=O)O)[C@H]1C2 [Compound 4, austalide P acid]	82.4
COc1c2c(c(C)c3c1C(=O)OC3)O[C@@]1(C)C[C@@H](O)[C@@H](C(C)(C)O)[C@](C)(CCC(=O)O)[C@H]1C2 [Compound 5, austalide H acid]	69.1
COc1c2c(c(C)c3c1C(=O)OC3)OC1(C)CC(O)C34OC(O)(CCC3(C)C1C2)OC4(C)C (stereo not shown) [Compound 6, 17-O-demethylaustalide B]	73.8
C=C(C)[C@@H]1[C@H](O)C[C@]2(C)Oc3c(C)c4c(c(OC)c3C[C@@H]2[C@@]1(C)CCC(=O)O)C(=O)OC4 [Compound 7, austalide Q acid]	74.8
C=C(C)[C@@H]1CC[C@]2(C)Oc3c(C)c4c(c(OC)c3C[C@@H]2[C@@]1(C)CCC(=O)O)C(=O)OC4 [Compound 8, 13-deoxyaustalide Q acid]	76.3
C=C1CCC2C(C)(CCC(O)C2(C)C(=O)O)C1CCC(C)=CC(=O)O (stereo not drawn) [Compound 9, 3β-hydroxy-agathic acid]	88.8
C=C1CCC2C(C)(CCC(OC(C)=O)C2(C)C(=O)O)C1CCC(C)=CC(=O)O (stereo not drawn) [Compound 10, 3β-acetoxy-agathic acid]	90
C=C1CC[C@@H]2[C@](C)(CCC[C@]2(C)C(=O)O)[C@H]1CC/C(C)=C/C(=O)O [Compound 11, agathic acid]	83.5

test system: not listed separately; assay: Cytotoxicity toward MDA-MB-468 breast carcinoma cells; type: cell-based, human; parameters: viability: concentration or dose not given beside the values; conditions: human, MDA-MB-468 breast carcinoma cells; read-out: cytotoxicity (%) toward MDA-MB-468 (cell viability)

Structure (SMILES)	viability [%]
COC(=O)CCC1(C)C(C(C)(C)O)CCC2(C)Oc3c(C)c4c(c(O)c3CC21)C(=O)OC4 (stereo not shown) [Compound 1, austalide Y]	31.6
COC(=O)CC[C@]1(C)[C@H]2Cc3c(c(C)c4c(c3OC)C(=O)OC4)O[C@@]2(C)CC[C@H]1C(C)(C)O [Compound 2, austalide P]	78.2
COC(=O)CC[C@]1(C)[C@H]2Cc3c(c(C)c4c(c3OC)C(=O)OC4)O[C@@]2(C)C[C@@H](O)[C@H]1C(C)(C)O [Compound 3, austalide H]	87.2
COc1c2c(c(C)c3c1C(=O)OC3)O[C@@]1(C)CC[C@@H](C(C)(C)O)[C@](C)(CCC(=O)O)[C@H]1C2 [Compound 4, austalide P acid]	92.6
COc1c2c(c(C)c3c1C(=O)OC3)O[C@@]1(C)C[C@@H](O)[C@@H](C(C)(C)O)[C@](C)(CCC(=O)O)[C@H]1C2 [Compound 5, austalide H acid]	87.3
COc1c2c(c(C)c3c1C(=O)OC3)OC1(C)CC(O)C34OC(O)(CCC3(C)C1C2)OC4(C)C (stereo not shown) [Compound 6, 17-O-demethylaustalide B]	92.3
C=C(C)[C@@H]1[C@H](O)C[C@]2(C)Oc3c(C)c4c(c(OC)c3C[C@@H]2[C@@]1(C)CCC(=O)O)C(=O)OC4 [Compound 7, austalide Q acid]	91.1
C=C(C)[C@@H]1CC[C@]2(C)Oc3c(C)c4c(c(OC)c3C[C@@H]2[C@@]1(C)CCC(=O)O)C(=O)OC4 [Compound 8, 13-deoxyaustalide Q acid]	79.3
C=C1CCC2C(C)(CCC(O)C2(C)C(=O)O)C1CCC(C)=CC(=O)O (stereo not drawn) [Compound 9, 3β-hydroxy-agathic acid]	92.1
C=C1CCC2C(C)(CCC(OC(C)=O)C2(C)C(=O)O)C1CCC(C)=CC(=O)O (stereo not drawn) [Compound 10, 3β-acetoxy-agathic acid]	94.5
C=C1CC[C@@H]2[C@](C)(CCC[C@]2(C)C(=O)O)[C@H]1CC/C(C)=C/C(=O)O [Compound 11, agathic acid]	89.3

test system: MDA-MB-468 cells; assay: as above; type: cell-based, human; parameters: viability: concentration or dose not given beside the values; conditions: Homo sapiens, MDA-MB-468

Structure (SMILES)	IC50 [µM]
COC(=O)CCC1(C)C(C(C)(C)O)CCC2(C)Oc3c(C)c4c(c(O)c3CC21)C(=O)OC4 (stereo not shown) [Compound 1, austalide Y]	38.9 ± 1.83
